Measurements taken from patent US6710052B2, “Pyrimidine compounds” (AstraZeneca, priority 2000, dated 2004).

Tests used:
CDK4/Cyclin D1 = molecular target: T1, CDK4/Cyclin D1 (Homo sapiens, UniProt P11802); assay: CDK4 Inhibition Assay (Scintillation Proximity Assay, GST-Retinoblastoma substrate); assay type: biochemical; settings: in vitro kinase assay; read-out: CDK4 inhibitory activity IC50
T1 construct: made in house; host or cells: Sf21 insect cells, baculovirus co-infection (pVL1393); the GST-Rb substrate was made in E. coli BL21 (DE3) pLysS
T1 sequence (P11802 whole entry): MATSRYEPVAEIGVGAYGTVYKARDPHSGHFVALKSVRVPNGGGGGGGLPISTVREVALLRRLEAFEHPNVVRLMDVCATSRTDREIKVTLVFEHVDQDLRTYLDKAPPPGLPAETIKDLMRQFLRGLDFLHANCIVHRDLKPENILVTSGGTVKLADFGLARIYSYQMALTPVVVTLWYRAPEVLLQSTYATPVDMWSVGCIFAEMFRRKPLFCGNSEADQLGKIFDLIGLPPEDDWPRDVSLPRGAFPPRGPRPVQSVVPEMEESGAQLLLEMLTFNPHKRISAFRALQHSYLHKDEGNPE
T1 sequence (P24385 whole entry partner): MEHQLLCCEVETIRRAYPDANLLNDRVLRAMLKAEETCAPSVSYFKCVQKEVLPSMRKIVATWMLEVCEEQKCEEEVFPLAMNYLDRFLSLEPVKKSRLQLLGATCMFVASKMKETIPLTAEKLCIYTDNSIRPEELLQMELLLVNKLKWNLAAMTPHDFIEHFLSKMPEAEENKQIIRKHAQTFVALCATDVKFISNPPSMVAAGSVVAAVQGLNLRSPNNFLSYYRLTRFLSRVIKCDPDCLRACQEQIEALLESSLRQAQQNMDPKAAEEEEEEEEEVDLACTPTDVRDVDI
Method: The compounds were tested in an in vitro kinase assay in 96 well format using Scintillation Proximity Assay (SPA—obtained from Amersham) for measuring incorporation of [γ-33-P]-Adenosine Triphosphate into a test substrate (GST-Retinoblastoma). In each well was placed the compound to be tested (diluted in DMSO and water to correct concentrations) and in control wells either p 16 as an inhibitor control or DMSO as a positive control.
Approximately 0.51 μl of CDK4/Cyclin D1 partially-purified enzyme (amount dependent on enzyme activity) diluted in 25 μl incubation buffer was added to each well then 20 μl of GST-Rb/ATP/ATP33 mixture (containing 0.5 μg GST-Rb and 0.2 μM ATP and 0.14 μCi [γ-33-P]-Adenosine Triphosphate), and the resulting mixture shaken gently, then incubated at room temperature for 60 minutes. […]
The plates were sealed with Topseal-S plate sealers, left for two hours then spun at 2500 rpm, 1124× g., for 5 minutes. The plates were read on a Topcount for 30 seconds per well. […]
E. coli paste was resuspended in 10 ml/g of NETN buffer (50 mM Tris pH 7.5, 120 mM NaCl, 1 mM EDTA, 0.5%v/v NP-40, 1 mM PMSF, 1 ug/ml leupeptin, 1 ug/ml aprotinin and 1 ug/ml pepstatin) and sonicated for 2×45 seconds per 100 ml homogenate. […] The final product was analysed by Sodium Dodeca Sulfate (SDS) PAGE (Polyacrylamide gel) using 8-16% Tris-Glycine gels (Novex, San Diego, USA). […]

[1] = molecular target: T2, human Focal Adhesion Kinase (FAK) (Homo sapiens, UniProt Q05397); assay: FAK3 Kinase Inhibition Assay; assay type: biochemical; settings: in vitro enzyme assay; read-out: FAK inhibitory activity IC50
T2 construct: FAK (full length human cDNA described by Andre et al); made in house; host or cells: Sf21 insect cells, recombinant baculovirus (pFastbac 1)
T2 sequence (Q05397 whole entry): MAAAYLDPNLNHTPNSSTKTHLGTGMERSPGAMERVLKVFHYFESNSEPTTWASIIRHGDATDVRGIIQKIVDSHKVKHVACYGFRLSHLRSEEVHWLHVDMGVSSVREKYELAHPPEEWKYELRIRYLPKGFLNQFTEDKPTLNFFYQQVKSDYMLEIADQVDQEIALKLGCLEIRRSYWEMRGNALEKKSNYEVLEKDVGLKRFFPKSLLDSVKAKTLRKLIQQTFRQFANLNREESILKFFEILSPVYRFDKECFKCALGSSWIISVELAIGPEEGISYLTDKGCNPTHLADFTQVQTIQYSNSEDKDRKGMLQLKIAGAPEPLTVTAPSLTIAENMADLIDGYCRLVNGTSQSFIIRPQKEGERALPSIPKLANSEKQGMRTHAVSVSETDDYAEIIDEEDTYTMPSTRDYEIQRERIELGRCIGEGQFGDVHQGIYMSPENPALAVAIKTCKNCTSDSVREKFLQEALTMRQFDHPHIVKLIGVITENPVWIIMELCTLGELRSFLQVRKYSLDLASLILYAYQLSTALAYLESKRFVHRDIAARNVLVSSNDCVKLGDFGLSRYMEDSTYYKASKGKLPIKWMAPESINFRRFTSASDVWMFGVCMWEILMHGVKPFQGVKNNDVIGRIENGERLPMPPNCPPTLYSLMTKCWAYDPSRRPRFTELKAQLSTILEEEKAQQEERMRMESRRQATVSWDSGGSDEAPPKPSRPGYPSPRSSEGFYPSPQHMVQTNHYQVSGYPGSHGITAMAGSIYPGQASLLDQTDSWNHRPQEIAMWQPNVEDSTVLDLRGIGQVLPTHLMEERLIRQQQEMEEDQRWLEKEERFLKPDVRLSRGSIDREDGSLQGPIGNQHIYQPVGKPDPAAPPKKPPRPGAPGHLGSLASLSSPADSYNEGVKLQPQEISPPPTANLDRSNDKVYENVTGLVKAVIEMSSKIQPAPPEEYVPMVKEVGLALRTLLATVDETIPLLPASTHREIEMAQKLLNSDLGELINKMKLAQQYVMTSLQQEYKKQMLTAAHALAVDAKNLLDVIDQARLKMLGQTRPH
Excerpt: FAK3 Kinase Inhibition Assay
This assay determines the ability of a test compound to inhibit tyrosine kinase activity of human Focal Adhesion Kinase (FAK).
DNA encoding FAK is obtained by total gene synthesis (Edwards M, International Biotechnology Lab 5(3), 19-25, 1987) or by cloning. These are then expressed in a suitable expression system to obtain polypeptide with tyrosine kinase activity.
Active FAK protein has been previously expressed in a baculovirus system using a similar N-terminal 6-histidine tag (Protein Expression And Purification, 1996, 7: 12-18). The human FAK cDNA was cloned into the baculovirus transplacement vector, pFastbac 1 (Life Technologies), and the recombinant construct was co-transfected into insect cells (for example Spodoptera frugiperda 21(Sf21)) with viral DNA to prepare recombinant baculovirus (details of the methods for the assembly of recombinant DNA molecules and the preparation and use of recombinant baculovirus can be found in standard texts for example Sambrook et al, 1989, Molecular cloning—A Laboratory Manual, 2nd edition, Cold Spring Harbour Laboratory Press and O'Reilly et al, 1992, Baculovirus Expression Vectors—A Laboratory Manual, W. H. Freeman and Co, New York. Details specific to the use of the pFastbac (‘Bac to Bac’) system are provided in Anderson et al., 1995, FOCUS (Life Technologies Bulletin Magazine), 17, p53.) […]

COc1ccc(Oc2nc(Nc3ccc(OCC(O)CNC(C)C)cc3)ncc2F)cc1 (centres unmarked) [Example 13]
IC50 (CDK4/Cyclin D1): 896 nM

CN(C)CC(O)COc1ccc(Nc2ncc(Br)c(Sc3ccccc3)n2)cc1 (centres unmarked) [Example 14, 5-Bromo-2-{4-[2-hydroxy-3-(N,N-dimethylamino)propoxy]anilino}-4-(phenylthio)pyrimidine]
IC50 [1]: 366 nM
